# In ChEMBL document CHEMBL5230084, “Indole-based derivatives as potential antibacterial activity against methicillin-resistance Staphylococcus aureus (MRSA)” (Eur J Med Chem, 2020):
# Key:
# Staphylococcus aureus [1] = assay: Antibacterial activity against methicillin-resistant Staphylococcus aureus; assay type: functional
# [2] = Cytotoxicity against human A549 cells assessed as inhibition of cell growth; assay type: toxicity, cell-based
# [3] = Cytotoxicity against human PC-3 cells assessed as inhibition of cell growth; assay type: toxicity, cell-based
# [4] = Cytotoxicity against human HeLa cells assessed as inhibition of cell growth; assay type: toxicity, cell-based
# [5] = Inhibition of methicillin-resistant Staphylococcus aureus pyruvate kinase
# Staphylococcus aureus [6] = assay: Antibacterial activity methicillin-resistant Staphylococcus aureus ST-2438 assessed as inhibition of bacterial growth incubated for 16 to 24 hrs by broth microdilution assay; assay type: functional; settings: time 16-24 hrs
# Staphylococcus aureus [7] = assay: Antibacterial activity methicillin-resistant Staphylococcus aureus ST-2071 assessed as inhibition of bacterial growth incubated for 16 to 24 hrs by broth microdilution assay; assay type: functional; settings: time 16-24 hrs
# Staphylococcus aureus [8] = assay: Antibacterial activity methicillin-resistant Staphylococcus aureus B-10760 assessed as inhibition of bacterial growth incubated for 16 to 24 hrs by broth microdilution assay; assay type: functional; settings: time 16-24 hrs
# Staphylococcus aureus [9] = assay: Antibacterial activity methicillin-resistant Staphylococcus aureus P-8029 assessed as inhibition of bacterial growth incubated for 16 to 24 hrs by broth microdilution assay; assay type: functional; settings: time 16-24 hrs
# Staphylococcus aureus [10] = assay: Antibacterial activity methicillin-resistant Staphylococcus aureus ST-1745 assessed as inhibition of bacterial growth incubated for 16 to 24 hrs by broth microdilution assay; assay type: functional; settings: time 16-24 hrs
# Staphylococcus aureus [11] = assay: Antibacterial activity methicillin-resistant Staphylococcus aureus P-6642 assessed as inhibition of bacterial growth incubated for 16 to 24 hrs by broth microdilution assay; assay type: functional; settings: time 16-24 hrs
# Staphylococcus aureus [12] = assay: Antibacterial activity methicillin-resistant Staphylococcus aureus ST-3151 assessed as inhibition of bacterial growth incubated for 16 to 24 hrs by broth microdilution assay; assay type: functional; settings: time 16-24 hrs
# Staphylococcus aureus [13] = assay: Antibacterial activity methicillin-resistant Staphylococcus aureus B-10732 assessed as inhibition of bacterial growth incubated for 16 to 24 hrs by broth microdilution assay; assay type: functional; settings: time 16-24 hrs
# Staphylococcus aureus [14] = assay: Antibacterial activity methicillin-resistant Staphylococcus aureus ST-5457 assessed as inhibition of bacterial growth incubated for 16 to 24 hrs by broth microdilution assay; assay type: functional; settings: time 16-24 hrs
# Staphylococcus aureus [15] = assay: Antibacterial activity methicillin-resistant Staphylococcus aureus ST-10342 assessed as inhibition of bacterial growth incubated for 16 to 24 hrs by broth microdilution assay; assay type: functional; settings: time 16-24 hrs
# Staphylococcus aureus [16] = assay: Antibacterial activity methicillin-resistant Staphylococcus aureus MTCC-96 assessed as inhibition of bacterial growth incubated for 16 to 24 hrs by broth microdilution assay; assay type: functional; settings: time 16-24 hrs
# Staphylococcus aureus [17] = assay: Antibacterial activity against Staphylococcus aureus assessed as inhibition of bacterial growth; assay type: functional
# Staphylococcus aureus [18] = assay: Antibacterial activity against methicillin-resistant Staphylococcus aureus 11 assessed as inhibition of bacterial growth; assay type: functional
# Staphylococcus aureus [19] = assay: Antibacterial activity against methicillin-resistant Staphylococcus aureus 12 assessed as inhibition of bacterial growth; assay type: functional
# Staphylococcus aureus [20] = assay: Antibacterial activity against methicillin-resistant Staphylococcus aureus 9 assessed as inhibition of bacterial growth; assay type: functional
# Staphylococcus aureus [21] = assay: Antibacterial activity against methicillin-resistant Staphylococcus aureus 8 assessed as inhibition of bacterial growth; assay type: functional
# Staphylococcus aureus [22] = assay: Antibacterial activity against methicillin-resistant Staphylococcus aureus 3 assessed as inhibition of bacterial growth; assay type: functional
# Staphylococcus aureus [23] = assay: Antibacterial activity against methicillin-resistant Staphylococcus aureus 6 assessed as inhibition of bacterial growth; assay type: functional
# Staphylococcus aureus [24] = assay: Antibacterial activity against methicillin-resistant Staphylococcus aureus 4 assessed as inhibition of bacterial growth; assay type: functional
# Staphylococcus aureus [25] = assay: Antibacterial activity against methicillin-resistant Staphylococcus aureus 252 assessed as inhibition of bacterial growth; assay type: functional
# Staphylococcus aureus [26] = assay: Antibacterial activity against Staphylococcus aureus ATCC 25923 assessed as inhibition of bacterial growth by agar well diffusion method; assay type: functional
# Staphylococcus aureus [27] = assay: Antibacterial activity against methicillin-resistant Staphylococcus aureus 4N216 infected in mouse assessed as endurance rate at 20 mg/kg, iv relative to control; assay type: functional
structure (smiles),measurement,setting,value
Nc1nnc(Cc2c[nH]c3ccccc23)s1,MIC,Staphylococcus aureus [1],3.12 µg/mL
Fc1ccc(C(c2c[nH]c3ccc(Br)cc23)c2c[nH]c3ccc(Br)cc23)cc1,MIC,Staphylococcus aureus [1],1 µg/mL
Clc1ccc(C(c2c[nH]c3ccc(Br)cc23)c2c[nH]c3ccc(Br)cc23)cc1,MIC,Staphylococcus aureus [1],1 µg/mL
O=[N+]([O-])c1ccc(C(c2c[nH]c3ccc(Br)cc23)c2c[nH]c3ccc(Br)cc23)cc1,IC50,[2],4.5 µM
same,MIC,Staphylococcus aureus [1],1 µg/mL
same,IC50,[3],3.9 µM
same,IC50,[4],2700 nM
Oc1ccc(C(c2c[nH]c3ccc(Br)cc23)c2c[nH]c3ccc(Br)cc23)cc1,MIC,Staphylococcus aureus [1],1 µg/mL
Oc1cccc(C(c2c[nH]c3ccc(Br)cc23)c2c[nH]c3ccc(Br)cc23)c1,MIC,Staphylococcus aureus [1],1 µg/mL
Clc1ccc2c(Cl)cc(-c3c[nH]c4ccc(Br)cc34)nc2c1,MIC,Staphylococcus aureus [1],< 1 µg/mL
OCc1cc(-c2c[nH]c3ccc(Br)cc23)nc2cc(Cl)ccc12,MIC,Staphylococcus aureus [1],< 1 µg/mL
Clc1ccc2nc(-c3c[nH]c4ccc(Cl)cc34)ccc2c1,MIC,Staphylococcus aureus [1],0.62 µg/mL
O=C1NC[C@@H](c2c[nH]c3cc(Br)ccc23)N[C@H]1c1c[nH]c2ccccc12,IC50,[5],16 nM
CCn1cc(Br)c2c3c(-c4ccc(Cl)cc4)onc3ccc21,MIC,Staphylococcus aureus [1],4.3 µg/mL
O=C(/C=C/c1c[nH]c2ccccc12)c1cccc(OCc2ccccc2)c1,MIC,Staphylococcus aureus [6],12.5 µg/mL
same,MIC,Staphylococcus aureus [7],12.5 µg/mL
same,MIC,Staphylococcus aureus [8],12.5 µg/mL
same,MIC,Staphylococcus aureus [9],12.5 µg/mL
same,MIC,Staphylococcus aureus [10],12.5 µg/mL
same,MIC,Staphylococcus aureus [11],12.5 µg/mL
same,MIC,Staphylococcus aureus [12],12.5 µg/mL
same,MIC,Staphylococcus aureus [13],12.5 µg/mL
same,MIC,Staphylococcus aureus [14],12.5 µg/mL
same,MIC,Staphylococcus aureus [15],12.5 µg/mL
same,MIC,Staphylococcus aureus [16],12.5 µg/mL
O=C(C1=N[C@H](c2c[nH]c3cc(Br)ccc23)CN1)c1c[nH]c2cc(O)ccc12,IC50,[5],16 nM
O=C(c1ccc(F)cc1)C1C(c2ccc(Br)cc2)CNC12C(=O)Nc1ccccc12 (centres undefined),MIC,Staphylococcus aureus [17],40 µg/mL
Brc1ccc2[nH]cc(C3Nc4ccc(I)cc4[C@H]4OCO[C@@H]34)c2c1 (some centres undefined),MIC,Staphylococcus aureus [1],0.31 µg/mL
Cc1ccc(C(=O)CC2C[C@H](n3c(-c4cc5ccccc5n4S(=O)(=O)c4ccc(C)cc4)c(CC(=O)OCc4ccccc4)c4ccccc43)O[C@@H]2COC(=O)c2ccc(C)cc2)cc1 (some centres undefined),MIC,Staphylococcus aureus [18],3 µg/mL
same,MIC,Staphylococcus aureus [19],3 µg/mL
same,MIC,Staphylococcus aureus [20],3 µg/mL
same,MIC,Staphylococcus aureus [21],3 µg/mL
same,MIC,Staphylococcus aureus [22],3 µg/mL
same,MIC,Staphylococcus aureus [23],3 µg/mL
same,MIC,Staphylococcus aureus [24],3 µg/mL
O=C(NCC(NC(=O)C(=O)c1c[nH]c2ccc(Br)cc12)c1c[nH]c2ccc(Br)cc12)OC(F)(F)F (centres undefined),MIC,Staphylococcus aureus [25],1 µg/mL
Cc1ccc(-c2onc3ccc4c(c(Br)cn4C(C)(C)C)c23)cc1,MIC,Staphylococcus aureus [1],4.3 µg/mL
CCCNc1nnc(Cc2c[nH]c3ccccc23)s1,MIC,Staphylococcus aureus [1],6.25 µg/mL
COc1ccc(C2C([N+](=O)[O-])C(c3ccccc3)NC23C(=O)N(Cc2ccccc2)c2ccccc23)cc1 (centres undefined),MIC,Staphylococcus aureus [26],5 µg/mL
c1ccc2c(-c3c[nH]c4ccccc34)c3c(nc2c1)[nH]c1ccccc13,MIC,Staphylococcus aureus [1],1 µg/mL
COC(=O)c1ccc(-c2ccc3c(c2)c(/C=N/NC(=N)N)cn3S(=O)(=O)c2ccccc2)cc1,MIC,Staphylococcus aureus [1],3.13 µg/mL
CCCCn1cc(Br)c2c3c(-c4ccc(C)cc4)onc3ccc21,MIC,Staphylococcus aureus [1],4.3 µg/mL
CCCCn1cc(Br)c2c3c(-c4ccc(Cl)cc4)onc3ccc21,MIC,Staphylococcus aureus [1],5 µg/mL
O=C(C1=N[C@H](c2c[nH]c3cc(Br)ccc23)CN1)c1c[nH]c2ccccc12,IC50,[5],16 nM
N=C(N)N/N=C/c1cn(S(=O)(=O)c2ccccc2)c2ccc(-c3ccc(OC(F)(F)F)cc3)cc12,MIC,Staphylococcus aureus [1],3.13 µg/mL
CCCn1cc(Br)c2c3c(-c4ccc(OC)cc4)occ3ccc21,MIC,Staphylococcus aureus [1],1.4 µg/mL
CC(=O)/C(=C\c1cn(CC(=O)N2CCCCC2)c2ccccc12)n1c([N+](=O)[O-])cnc1C,MIC,Staphylococcus aureus [1],1 µg/mL
N=C(N)N/N=C/c1cn(S(=O)(=O)c2ccccc2)c2ccc(-c3ccc(F)c(Cl)c3)cc12,MIC,Staphylococcus aureus [1],3.13 µg/mL
CCCCn1cc(Br)c2c3c(-c4ccc(OC)cc4)occ3ccc21,MIC,Staphylococcus aureus [1],1.4 µg/mL
N=C(N)N/N=C/c1cn(S(=O)(=O)c2ccccc2)c2ccc(-c3ccc(C(F)(F)F)cc3)cc12,MIC,Staphylococcus aureus [1],3.13 µg/mL
O=C(c1ccc(F)cc1)C1C(c2ccc(Cl)cc2)CNC12C(=O)Nc1ccccc12 (centres undefined),MIC,Staphylococcus aureus [17],30 µg/mL
CC(NC(=O)C(=O)c1c[nH]c2ccc(Br)cc12)c1c[nH]c2ccc(Br)cc12 (centres undefined),MIC,Staphylococcus aureus [25],2 µg/mL
CC(C)(C)n1cc(Br)c2c3c(-c4ccc(Cl)cc4)onc3ccc21,MIC,Staphylococcus aureus [1],4.3 µg/mL
CCn1cc(Br)c2c3c(-c4ccc(OC)cc4)occ3ccc21,MIC,Staphylococcus aureus [1],1.4 µg/mL
Cc1ccc(C(=O)OC[C@H]2O[C@H](n3c(-c4cc5ccccc5[nH]4)c(CC(=O)N(CC(=O)O)Cc4ccccc4)c4ccccc43)CC2OC(=O)c2ccc(C)cc2)cc1 (some centres undefined),MIC,Staphylococcus aureus [18],13 µg/mL
same,MIC,Staphylococcus aureus [19],13 µg/mL
same,MIC,Staphylococcus aureus [20],13 µg/mL
same,MIC,Staphylococcus aureus [21],13 µg/mL
same,MIC,Staphylococcus aureus [22],13 µg/mL
same,MIC,Staphylococcus aureus [23],13 µg/mL
same,MIC,Staphylococcus aureus [24],13 µg/mL
Clc1ccc(-n2nc(C3CCNCC3)cc2/C=C/c2c[nH]c3ccc(Cl)cc23)cc1,MIC,Staphylococcus aureus [1],1 µg/mL
Cl.OC(CNCCc1c[nH]c2cc(F)ccc12)Cn1c2ccc(Cl)cc2c2cc(Cl)ccc21 (centres undefined),Activity,Staphylococcus aureus [27],75%
Fc1cccc(Nc2nnc(Cc3c[nH]c4ccccc34)s2)c1,MIC,Staphylococcus aureus [1],25 µg/mL
Clc1ccc2c(c1)[C@H]1OCO[C@H]1C(c1c[nH]c3ccc(Br)cc13)N2 (some centres undefined),MIC,Staphylococcus aureus [1],0.31 µg/mL
COc1ccc(C2C([N+](=O)[O-])C(c3ccccc3)NC23C(=O)Nc2ccccc23)cc1 (centres undefined),MIC,Staphylococcus aureus [26],5 µg/mL
COc1ccc2nc3[nH]c4ccccc4c3c(-c3c[nH]c4ccccc34)c2c1,MIC,Staphylococcus aureus [1],4 µg/mL
Fc1ccc(Nc2nnc(Cc3c[nH]c4ccccc34)s2)c(F)c1,MIC,Staphylococcus aureus [1],50 µg/mL
CCOC(=O)CN(CCc1c(I)n([C@@H]2CC(OC(=O)c3ccc(C)cc3)[C@@H](COC(=O)c3ccc(C)cc3)O2)c2ccccc12)Cc1ccccc1 (some centres undefined),MIC,Staphylococcus aureus [18],6 µg/mL
same,MIC,Staphylococcus aureus [19],6 µg/mL
same,MIC,Staphylococcus aureus [20],6 µg/mL
same,MIC,Staphylococcus aureus [21],6 µg/mL
same,MIC,Staphylococcus aureus [22],6 µg/mL
same,MIC,Staphylococcus aureus [23],6 µg/mL
same,MIC,Staphylococcus aureus [24],6 µg/mL
N=C(N)N/N=C/c1cn(S(=O)(=O)c2ccccc2)c2ccc(-c3cccc(OC(F)(F)F)c3)cc12,MIC,Staphylococcus aureus [1],3.13 µg/mL
c1ccc(Nc2nnc(Cc3c[nH]c4ccccc34)s2)cc1,MIC,Staphylococcus aureus [1],25 µg/mL
Clc1ccc(Nc2nnc(Cc3c[nH]c4ccccc34)s2)c(Cl)c1,MIC,Staphylococcus aureus [1],25 µg/mL
CC(C)(C)OC(=O)NCC(NC(=O)c1c[nH]c2ccc(Br)cc12)c1c[nH]c2ccc(Br)cc12 (centres undefined),MIC,Staphylococcus aureus [25],2 µg/mL
COc1ccc(-c2occ3ccc4c(c(Br)cn4C(C)(C)C)c23)cc1,MIC,Staphylococcus aureus [1],1.4 µg/mL
Clc1ccc2nc(-c3c[nH]c4ccc(Br)cc34)ccc2c1,MIC,Staphylococcus aureus [1],0.62 µg/mL
Fc1ccc2[nH]cc(-c3ccc4cc(Cl)ccc4n3)c2c1,MIC,Staphylococcus aureus [1],0.62 µg/mL
Fc1ccc2c(-c3ccc4cc(Cl)ccc4n3)c[nH]c2c1,MIC,Staphylococcus aureus [1],0.62 µg/mL
CC1=C(C(=O)O)N2C(=O)[C@@H](NC(=O)[C@H](N)c3ccccc3)[C@H]2SC1 [CEPHALEXIN ANHYDROUS],MIC,Staphylococcus aureus [1],72 µg/mL
O=C(O)c1cn(C2CC2)c2cc(N3CCNCC3)c(F)cc2c1=O [CIPROFLOXACIN],MIC,Staphylococcus aureus [26],0.3 µg/mL
same,MIC,Staphylococcus aureus [17],20 µg/mL
CC[C@H]1OC(=O)[C@H](C)[C@@H](O[C@H]2C[C@@](C)(OC)[C@@H](O)[C@H](C)O2)[C@H](C)[C@@H](O[C@@H]2O[C@H](C)C[C@H](N(C)C)[C@H]2O)[C@](C)(O)C[C@@H](C)C(=O)[C@H](C)[C@@H](O)[C@]1(C)O [ERYTHROMYCIN],MIC,Staphylococcus aureus [1],32 µg/mL
O=C(C1=NC(c2c[nH]c3cc(Br)ccc23)CN1)c1c[nH]c2ccccc12 (centres undefined) [SPONGOTINE A],IC50,[5],16 nM
CC1(C)S[C@@H]2[C@H](NC(=O)[C@H](N)c3ccccc3)C(=O)N2[C@H]1C(=O)OCOC(=O)[C@@H]1N2C(=O)C[C@H]2S(=O)(=O)C1(C)C [SULTAMICILLIN],MIC,Staphylococcus aureus [1],25 µg/mL
